One block for each molecule: values may come before it.
Experiments:
[1] = Retardation factor of the compound in deionized water at 1 g at pH 3.3 after 90 mins by TLC analysis; assay type: physicochemical; conditions: pH 3.3, 1.5 h
[2] = Drug degradation in oxygen-18 enriched water assessed as 5,3-formyl-3,6-dihydro-6-phenyl-2,5(lH,4H)-pyrazinedione level at 60 mg by mass spectroscopic analysis; conditions: in vivo
[3] = Drug degradation in deionized water assessed as 5,3-formyl-3,6-dihydro-6-phenyl-2,5(lH,4H)-pyrazinedione level at 100 mg at pH 3.3 after 90 mins by IR/TLC analysis; assay type: physicochemical; conditions: pH 3.3, 1.5 h
[4] = Drug degradation in deionized water assessed as 3-hydroxy-4-methyl-2(5H)-thiophenone level at 100 mg at pH 3.3 after 90 mins by IR/TLC analysis; assay type: physicochemical; conditions: pH 3.3, 1.5 h
[5] = Drug recovery in Purdue-Wistar rat feces at 1.6 mg/ml, po after 24 hrs; conditions: faeces
[6] = Drug recovery in ICR mouse feces at 1.6 mg/ml, po after 24 hrs; conditions: faeces
Mus musculus = experiment: Toxicity in po dosed ICR mouse; assay type: organism-based; conditions: in vivo

Rf [1]: 0.78
Structure (SMILES): O=CC1NC(=O)C(c2ccccc2)NC1=O (stereo not drawn)

Rf [1]: 0.91
Structure (SMILES): CC1=C(O)C(=O)SC1

Stability [2]: Unstable
Stability [3]: Unstable
Stability [4]: Unstable
Structure (SMILES): CC1CSC(C2NC(=O)C(c3ccccc3)NC2=O)N=C1C(=O)[O-].[Na+] (stereo not drawn)

Structure (SMILES): CC1=C(C(=O)O)N2C(=O)[C@@H](NC(=O)[C@H](N)c3ccccc3)[C@H]2SC1 [CEPHALEXIN ANHYDROUS]
dose excreted at 24 h [5]: 99%
dose excreted at 24 h [6]: 99%

Structure (SMILES): CC1=C(C(=O)O)N2C(=O)[C@@H](NC(=O)[C@H](N)c3ccccc3)[C@H]2SC1.O [CEPHALEXIN]
LD (Mus musculus): > 5000 mg/kg

Reference: ChEMBL document CHEMBL3244389, “Cephalosporin degradations” (J Med Chem, 1977)
